Each compound was assayed against T1, Avi-KRAS G12D (1-169) GppNHp/RAF1 RBD-3xFLAG (52-151) (Homo sapiens, UniProt P01116, G12D) (assay: Raf1-KRAS G12D-GppNHP disruption HTRF assay (Biological Example 1)). Conditions: KRAS G12D-GppNHp/RAF1 RBD HTRF.
T1 construct: Avi-KRAS G12D (1-169)
Assay type: binding
In short: (§1)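 Measured with a KRAS/RAF1 HTRF assay at pH 7.5 in 10% DMSO, with two 1 h room-temperature incubations with shaking.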

T1 sequence (P01116 1-169 isoform P01116-2 G12D): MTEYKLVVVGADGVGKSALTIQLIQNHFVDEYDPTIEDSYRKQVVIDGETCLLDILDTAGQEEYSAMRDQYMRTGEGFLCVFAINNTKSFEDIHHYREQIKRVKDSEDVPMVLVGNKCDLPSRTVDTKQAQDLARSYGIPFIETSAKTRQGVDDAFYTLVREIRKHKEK

SMILES | IC50
N#Cc1c(N)sc2c(F)ccc(-c3c(C(F)(F)F)cc4c(N5CCc6nocc6C5)nc(OC[C@@]56CCCN5C[C@H](F)C6)nc4c3F)c12 [Compound 457] | 0.1 to 1 µM
C[C@@H]1[C@H](N(C)c2nc(OC[C@@]34CCCN3C[C@H](F)C4)nc3c(F)c(-c4ccc(F)c5sc(N)c(C#N)c45)c(C(F)(F)F)cc23)CCN1C(=O)C(F)F [Compound 458] | 0.1 to 1 µM
C[C@@H]1[C@H](N(C)c2nc(OC[C@@]34CCCN3C[C@H](F)C4)nc3c(F)c(-c4ccc(F)c5sc(N)c(C#N)c45)c(C(F)(F)F)cc23)CCN1C(=O)C(C)(F)F [Compound 459] | 0.1 to 1 µM
C[C@@H]1[C@H](N(C)c2nc(OC[C@@]34CCCN3C[C@H](F)C4)nc3c(F)c(-c4ccc(F)c5sc(N)c(C#N)c45)c(Cl)cc23)CCN1C(=O)CF [Compound 460] | 0.1 to 1 µM
C[C@@H]1[C@H](N(C)c2nc(OC[C@@]34CCCN3C[C@H](F)C4)nc3c(F)c(-c4ccc(F)c5sc(N)c(C#N)c45)c(C(F)(F)F)cc23)CCN1C(=O)CF [Compound 461] | < 0.1 µM
CN(c1nc(OC[C@@]23CCCN2C[C@H](F)C3)nc2c(F)c(-c3ccc(F)c4sc(N)c(C#N)c34)c(C(F)(F)F)cc12)[C@H]1C[C@H](CF)N(C(=O)C2CC2)C1 [Compound 462] | 0.1 to 1 µM

What follows are compounds tested against T2, Avi-KRAS G12R (1-169) GppNHp/RAF1 RBD-3xFLAG (52-151) (Homo sapiens, UniProt P01116, G12R) (assay: Raf1-KRAS G12R-GppNHP disruption HTRF assay (Biological Example 1)). Conditions: KRAS G12R-GppNHp/RAF1 RBD HTRF.
T2 construct: Avi-KRAS G12R (1-169)
Assay type: binding
In short: as §1

T2 sequence (P01116 1-169 isoform P01116-2 G12R): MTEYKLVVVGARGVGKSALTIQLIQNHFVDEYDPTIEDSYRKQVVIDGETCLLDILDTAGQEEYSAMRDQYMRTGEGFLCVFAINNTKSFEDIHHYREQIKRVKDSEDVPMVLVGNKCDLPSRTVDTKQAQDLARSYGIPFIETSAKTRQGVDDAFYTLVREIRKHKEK

SMILES | IC50
N#Cc1c(N)sc2c(F)ccc(-c3c(C(F)(F)F)cc4c(N5CCc6nocc6C5)nc(OC[C@@]56CCCN5C[C@H](F)C6)nc4c3F)c12 [Compound 457] | 0.1 to 1 µM
C[C@@H]1[C@H](N(C)c2nc(OC[C@@]34CCCN3C[C@H](F)C4)nc3c(F)c(-c4ccc(F)c5sc(N)c(C#N)c45)c(C(F)(F)F)cc23)CCN1C(=O)C(F)F [Compound 458] | 0.1 to 1 µM
C[C@@H]1[C@H](N(C)c2nc(OC[C@@]34CCCN3C[C@H](F)C4)nc3c(F)c(-c4ccc(F)c5sc(N)c(C#N)c45)c(C(F)(F)F)cc23)CCN1C(=O)C(C)(F)F [Compound 459] | 0.1 to 1 µM
C[C@@H]1[C@H](N(C)c2nc(OC[C@@]34CCCN3C[C@H](F)C4)nc3c(F)c(-c4ccc(F)c5sc(N)c(C#N)c45)c(Cl)cc23)CCN1C(=O)CF [Compound 460] | 0.1 to 1 µM
C[C@@H]1[C@H](N(C)c2nc(OC[C@@]34CCCN3C[C@H](F)C4)nc3c(F)c(-c4ccc(F)c5sc(N)c(C#N)c45)c(C(F)(F)F)cc23)CCN1C(=O)CF [Compound 461] | 0.1 to 1 µM
CN(c1nc(OC[C@@]23CCCN2C[C@H](F)C3)nc2c(F)c(-c3ccc(F)c4sc(N)c(C#N)c34)c(C(F)(F)F)cc12)[C@H]1C[C@H](CF)N(C(=O)C2CC2)C1 [Compound 462] | 0.1 to 1 µM

The compounds below were run against T3, Avi-KRAS G12V (1-169) GppNHp/RAF1 RBD-3xFLAG (52-151) (Homo sapiens, UniProt P01116, G12V) (assay: Raf1-KRAS G12V-GppNHP disruption HTRF assay (Biological Example 1)). Conditions: KRAS G12V-GppNHp/RAF1 RBD HTRF.
T3 construct: Avi-KRAS G12V (1-169)
Assay type: binding
In short: as §1

T3 sequence (P01116 1-169 isoform P01116-2 G12V): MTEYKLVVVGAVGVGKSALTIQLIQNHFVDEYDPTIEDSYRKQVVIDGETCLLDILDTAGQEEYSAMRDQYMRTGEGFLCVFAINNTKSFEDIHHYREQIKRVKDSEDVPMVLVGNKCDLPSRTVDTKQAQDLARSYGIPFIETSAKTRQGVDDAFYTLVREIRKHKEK

SMILES | IC50
N#Cc1c(N)sc2c(F)ccc(-c3c(C(F)(F)F)cc4c(N5CCc6nocc6C5)nc(OC[C@@]56CCCN5C[C@H](F)C6)nc4c3F)c12 [Compound 457] | 0.1 to 1 µM
C[C@@H]1[C@H](N(C)c2nc(OC[C@@]34CCCN3C[C@H](F)C4)nc3c(F)c(-c4ccc(F)c5sc(N)c(C#N)c45)c(C(F)(F)F)cc23)CCN1C(=O)C(F)F [Compound 458] | 0.1 to 1 µM
C[C@@H]1[C@H](N(C)c2nc(OC[C@@]34CCCN3C[C@H](F)C4)nc3c(F)c(-c4ccc(F)c5sc(N)c(C#N)c45)c(C(F)(F)F)cc23)CCN1C(=O)C(C)(F)F [Compound 459] | 0.1 to 1 µM
C[C@@H]1[C@H](N(C)c2nc(OC[C@@]34CCCN3C[C@H](F)C4)nc3c(F)c(-c4ccc(F)c5sc(N)c(C#N)c45)c(Cl)cc23)CCN1C(=O)CF [Compound 460] | 0.1 to 1 µM
C[C@@H]1[C@H](N(C)c2nc(OC[C@@]34CCCN3C[C@H](F)C4)nc3c(F)c(-c4ccc(F)c5sc(N)c(C#N)c45)c(C(F)(F)F)cc23)CCN1C(=O)CF [Compound 461] | 0.1 to 1 µM
CN(c1nc(OC[C@@]23CCCN2C[C@H](F)C3)nc2c(F)c(-c3ccc(F)c4sc(N)c(C#N)c34)c(C(F)(F)F)cc12)[C@H]1C[C@H](CF)N(C(=O)C2CC2)C1 [Compound 462] | 0.1 to 1 µM

What follows are compounds tested against T4, Avi-KRAS WT (1-169) GppNHp/RAF1 RBD-3xFLAG (52-151) (Homo sapiens, UniProt P01116) (assay: Raf1-KRAS WT-GppNHP disruption HTRF assay (Biological Example 1)). Conditions: KRAS WT-GppNHp/RAF1 RBD HTRF.
T4 construct: Avi-KRAS WT (1-169)
Assay type: binding
In short: as §1

T4 sequence (P01116 1-169 isoform P01116-2): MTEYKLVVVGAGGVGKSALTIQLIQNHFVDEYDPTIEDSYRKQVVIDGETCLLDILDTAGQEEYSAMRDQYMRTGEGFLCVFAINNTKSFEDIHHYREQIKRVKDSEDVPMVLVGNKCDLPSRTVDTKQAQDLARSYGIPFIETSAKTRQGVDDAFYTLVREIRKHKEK

SMILES | IC50
N#Cc1c(N)sc2c(F)ccc(-c3c(C(F)(F)F)cc4c(N5CCc6nocc6C5)nc(OC[C@@]56CCCN5C[C@H](F)C6)nc4c3F)c12 [Compound 457] | 0.1 to 1 µM
C[C@@H]1[C@H](N(C)c2nc(OC[C@@]34CCCN3C[C@H](F)C4)nc3c(F)c(-c4ccc(F)c5sc(N)c(C#N)c45)c(C(F)(F)F)cc23)CCN1C(=O)C(F)F [Compound 458] | 0.1 to 1 µM
C[C@@H]1[C@H](N(C)c2nc(OC[C@@]34CCCN3C[C@H](F)C4)nc3c(F)c(-c4ccc(F)c5sc(N)c(C#N)c45)c(C(F)(F)F)cc23)CCN1C(=O)C(C)(F)F [Compound 459] | 0.1 to 1 µM
C[C@@H]1[C@H](N(C)c2nc(OC[C@@]34CCCN3C[C@H](F)C4)nc3c(F)c(-c4ccc(F)c5sc(N)c(C#N)c45)c(Cl)cc23)CCN1C(=O)CF [Compound 460] | 0.1 to 1 µM
C[C@@H]1[C@H](N(C)c2nc(OC[C@@]34CCCN3C[C@H](F)C4)nc3c(F)c(-c4ccc(F)c5sc(N)c(C#N)c45)c(C(F)(F)F)cc23)CCN1C(=O)CF [Compound 461] | < 0.1 µM
CN(c1nc(OC[C@@]23CCCN2C[C@H](F)C3)nc2c(F)c(-c3ccc(F)c4sc(N)c(C#N)c34)c(C(F)(F)F)cc12)[C@H]1C[C@H](CF)N(C(=O)C2CC2)C1 [Compound 462] | 0.1 to 1 µM

What follows are compounds tested on GP2d cells (KRAS G12D) (assay: Cell-based pERK HTRF assay in GP2d cell (Biological Example 2)). Conditions: GP2d (KRAS G12D) cells, pERK HTRF.
In short: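 Phospho-ERK is measured by HTRF following a 60 min compound exposure at 0.25% DMSO, with a 9-point half-log curve topping at 1 μM or 100 nM.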

SMILES | IC50
C[C@@H]1[C@H](N(C)c2nc(OC[C@@]34CCCN3C[C@H](F)C4)nc3c(F)c(-c4ccc(F)c5sc(N)c(C#N)c45)c(Cl)cc23)CCN1C(=O)CF [Compound 460] | < 0.1 µM
C[C@@H]1[C@H](N(C)c2nc(OC[C@@]34CCCN3C[C@H](F)C4)nc3c(F)c(-c4ccc(F)c5sc(N)c(C#N)c45)c(C(F)(F)F)cc23)CCN1C(=O)CF [Compound 461] | < 0.1 µM

Same assay, conditions: GP2d, GP2d (KRAS G12D) cells, pERK HTRF

SMILES | IC50
N#Cc1c(N)sc2c(F)ccc(-c3c(C(F)(F)F)cc4c(N5CCc6nocc6C5)nc(OC[C@@]56CCCN5C[C@H](F)C6)nc4c3F)c12 [Compound 457] | < 0.1 µM
C[C@@H]1[C@H](N(C)c2nc(OC[C@@]34CCCN3C[C@H](F)C4)nc3c(F)c(-c4ccc(F)c5sc(N)c(C#N)c45)c(C(F)(F)F)cc23)CCN1C(=O)C(F)F [Compound 458] | < 0.1 µM
C[C@@H]1[C@H](N(C)c2nc(OC[C@@]34CCCN3C[C@H](F)C4)nc3c(F)c(-c4ccc(F)c5sc(N)c(C#N)c45)c(C(F)(F)F)cc23)CCN1C(=O)C(C)(F)F [Compound 459] | < 0.1 µM
CN(c1nc(OC[C@@]23CCCN2C[C@H](F)C3)nc2c(F)c(-c3ccc(F)c4sc(N)c(C#N)c34)c(C(F)(F)F)cc12)[C@H]1C[C@H](CF)N(C(=O)C2CC2)C1 [Compound 462] | < 0.1 µM

The compounds below were run on SW620 cells (KRAS G12V) (assay: Cell-based pERK HTRF assay in SW620 cell (Biological Example 4)). Conditions: Homo sapiens, SW-620, SW620 (KRAS G12V) cells, pERK HTRF.
In short: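 This assay measures inhibition of ERK phosphorylation downstream of KRAS G12V in intact SW620 cells. Compounds are applied for 4 h over nine half-log concentrations starting at 1 μM, and pERK is quantified by HTRF.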

SMILES | IC50
N#Cc1c(N)sc2c(F)ccc(-c3c(C(F)(F)F)cc4c(N5CCc6nocc6C5)nc(OC[C@@]56CCCN5C[C@H](F)C6)nc4c3F)c12 [Compound 457] | < 0.1 µM
C[C@@H]1[C@H](N(C)c2nc(OC[C@@]34CCCN3C[C@H](F)C4)nc3c(F)c(-c4ccc(F)c5sc(N)c(C#N)c45)c(C(F)(F)F)cc23)CCN1C(=O)C(F)F [Compound 458] | < 0.1 µM
C[C@@H]1[C@H](N(C)c2nc(OC[C@@]34CCCN3C[C@H](F)C4)nc3c(F)c(-c4ccc(F)c5sc(N)c(C#N)c45)c(C(F)(F)F)cc23)CCN1C(=O)C(C)(F)F [Compound 459] | < 0.1 µM
C[C@@H]1[C@H](N(C)c2nc(OC[C@@]34CCCN3C[C@H](F)C4)nc3c(F)c(-c4ccc(F)c5sc(N)c(C#N)c45)c(Cl)cc23)CCN1C(=O)CF [Compound 460] | < 0.1 µM
C[C@@H]1[C@H](N(C)c2nc(OC[C@@]34CCCN3C[C@H](F)C4)nc3c(F)c(-c4ccc(F)c5sc(N)c(C#N)c45)c(C(F)(F)F)cc23)CCN1C(=O)CF [Compound 461] | < 0.1 µM
CN(c1nc(OC[C@@]23CCCN2C[C@H](F)C3)nc2c(F)c(-c3ccc(F)c4sc(N)c(C#N)c34)c(C(F)(F)F)cc12)[C@H]1C[C@H](CF)N(C(=O)C2CC2)C1 [Compound 462] | < 0.1 µM

— patent US20260042764A1, “COMPOSITIONS AND METHODS FOR INHIBITION OF KRAS” (TheRas, Inc., priority 2022, published 2026)
